Results as given in publication PMC5599305 (The pharmacogenomics journal, 2017).

Legend:
Type in all cases: cell-based
[1] = molecular target: T1, human α4β2 nicotinic receptor, 3:2 (α4:β2) stoichiometry; (α4)3(β2)2 (Homo sapiens, UniProt P17787+P43681); test: two-electrode voltage clamp, Xenopus oocytes; conditions: agonist
[2] = molecular target: T1, human α4β2 nicotinic receptor, 3:2 (α4:β2) stoichiometry; (α4)3(β2)2; test: two-electrode voltage clamp, Xenopus oocytes, direct activation; conditions: 200 μM compound alone; weak agonism
[3] = molecular target: human α4β2 nicotinic receptor, 2:3 stoichiometry; (α4)2(β2)3 (Homo sapiens, UniProt P17787+P43681); test: as above; conditions: 200 μM compound alone; weak agonism
Sequence of human α4β2 nicotinic receptor, 2:3 stoichiometry; (α4)2(β2)3 (P43681 27-627): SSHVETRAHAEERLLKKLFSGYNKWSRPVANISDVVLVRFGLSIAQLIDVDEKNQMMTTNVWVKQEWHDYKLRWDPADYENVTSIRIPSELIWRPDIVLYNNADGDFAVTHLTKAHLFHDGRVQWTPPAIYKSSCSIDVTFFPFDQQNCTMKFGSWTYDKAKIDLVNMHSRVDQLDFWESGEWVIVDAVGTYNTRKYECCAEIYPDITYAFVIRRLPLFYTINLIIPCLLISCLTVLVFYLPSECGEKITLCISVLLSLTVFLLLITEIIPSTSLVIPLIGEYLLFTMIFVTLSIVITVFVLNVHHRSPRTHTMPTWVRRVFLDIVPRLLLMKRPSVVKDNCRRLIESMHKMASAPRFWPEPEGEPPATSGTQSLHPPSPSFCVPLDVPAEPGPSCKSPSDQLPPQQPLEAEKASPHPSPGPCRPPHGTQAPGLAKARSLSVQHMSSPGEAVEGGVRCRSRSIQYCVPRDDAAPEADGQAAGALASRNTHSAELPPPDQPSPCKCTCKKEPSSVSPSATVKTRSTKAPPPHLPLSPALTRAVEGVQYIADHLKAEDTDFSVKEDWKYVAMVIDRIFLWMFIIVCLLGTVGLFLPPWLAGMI
Sequence of human α4β2 nicotinic receptor, 2:3 stoichiometry; (α4)2(β2)3 (P17787 26-502): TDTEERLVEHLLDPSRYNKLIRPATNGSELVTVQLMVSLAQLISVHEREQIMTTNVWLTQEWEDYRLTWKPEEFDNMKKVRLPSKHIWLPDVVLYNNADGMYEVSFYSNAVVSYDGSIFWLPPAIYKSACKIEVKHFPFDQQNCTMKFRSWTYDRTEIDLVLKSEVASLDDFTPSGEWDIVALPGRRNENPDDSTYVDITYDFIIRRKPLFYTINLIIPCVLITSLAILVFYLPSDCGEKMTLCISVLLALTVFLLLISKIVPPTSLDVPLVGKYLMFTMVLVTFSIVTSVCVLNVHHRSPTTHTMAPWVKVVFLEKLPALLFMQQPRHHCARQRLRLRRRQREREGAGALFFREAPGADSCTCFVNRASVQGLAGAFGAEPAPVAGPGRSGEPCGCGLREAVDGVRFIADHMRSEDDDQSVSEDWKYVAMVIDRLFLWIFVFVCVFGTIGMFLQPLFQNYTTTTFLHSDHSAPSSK

T1 sequence (P43681 27-627): as the sequence (P43681 27-627) above
T1 sequence (P17787 26-502): as the sequence (P17787 26-502) above

For `CC(=O)OCC[N+](C)(C)C` [acetylcholine], the EC3 [1] was ~ 1 μM.
In the case of `C[N@@+]1([O-])CCC[C@H]1c1cccnc1` [trans-nicotine-N-oxide], the “relative peak response, % of 1 mM ACh response, at 200 μM” value [2] is reported as 1.7 ± 0.3% and the “relative peak response, % of saturating ACh response, at 200 μM” value [3] is reported as 5.7 ± 1.1%.
